≈ marks a conversion by molar mass, not a printed value.
Key:
[1] = Thermodynamic solubility (shaking flask, simulated intestinal fluid); format: physicochemical; details: for solubility thermodynamic: fessif, thermodynamic from solid, crystalline free base GS-6620, amorphous GS2
Description: (§1) The samples were incubated at 37°C for 1 h, followed by centrifugation at 2,800 relative centrifugal force (RCF) for 30 min at room temperature. Thermodynamic solubility was determined with the crystalline-free base of GS-6620 or amorphous GS2 using the shaking flask method. The concentrations of the compounds in supernatants were determined by HPLC.

[2] = test system: HCV GT1a replicon; experiment: HCV GT1a replicon, transiently transfected Huh-1C cells; format: cell-based, hepatitis C virus; details: for EC50: Hepatitis C virus, GT1A, 72 h
Description: (§2) GT1a, GT1b, and GT2a are authentic subgenomic replicons of the indicated strain. Creation of these HCV replicons was reported previously ([7]).
RNA was transcribed in vitro using a MEGAscript […] kit (Ambion, Austin, TX) and transfected into Huh-Lunet and −1C cells using published methods ([21], [22]).
(§3) The EC50s, defined as the concentration at which there was a measured 50% decrease in HCV replicon level, were determined in replicon assay as previously described ([24]). Briefly, replicon cells were seeded into 96-well plates. Compounds were serially diluted in DMSO at 200× final concentrations and then added to the assay plate. Luciferase expression was quantified after 3 days of incubation using a commercial luciferase assay (Promega, Madison, WI). Data were analyzed using GraphPad Prism 6.0 (La Jolla, CA).
(§4) X represents log of compound concentration and Y represents replicon replication as the percentage of DMSO control. EC50s were calculated as an average from at least three independent experiments.

[3] = Metabolic stability in hepatic S9 fraction, monkey; format: in vitro ADME; details: monkey (cynomolgus); 2 μM
Description: (§5) Blood plasma and S9 stability was studied as described previously ([8]). In brief, the compounds were incubated at 2 μM in hamster, rat, dog, monkey, or human plasma samples for up to 4 h at 37°C. For S9 stability, the compounds were incubated at 2 μM in hamster, rat, dog, monkey, or human intestinal and hepatic S9 fractions for up to 90 min at 37°C in the presence of NADPH and uridine 5′-diphosphoglucuronic acid trisodium salt (UDPGA) (Sigma-Adrich). The samples were analyzed by liquid chromatography coupled to triple-quadrupole mass spectrometry (LC-MS/MS).
(§6) The data (analyte-to-internal standard peak area ratio) were plotted on a semilog scale and fitted using an exponential fit. The half-life (t1/2) was determined assuming first-order kinetics.

[4] = target: T1, CES1 (Homo sapiens, UniProt P23141); experiment: Ester cleavage by CES1; format: biochemical
T1 construct: purchased R&D Systems (Minneapolis, MN)
T1 sequence (P23141 18-567): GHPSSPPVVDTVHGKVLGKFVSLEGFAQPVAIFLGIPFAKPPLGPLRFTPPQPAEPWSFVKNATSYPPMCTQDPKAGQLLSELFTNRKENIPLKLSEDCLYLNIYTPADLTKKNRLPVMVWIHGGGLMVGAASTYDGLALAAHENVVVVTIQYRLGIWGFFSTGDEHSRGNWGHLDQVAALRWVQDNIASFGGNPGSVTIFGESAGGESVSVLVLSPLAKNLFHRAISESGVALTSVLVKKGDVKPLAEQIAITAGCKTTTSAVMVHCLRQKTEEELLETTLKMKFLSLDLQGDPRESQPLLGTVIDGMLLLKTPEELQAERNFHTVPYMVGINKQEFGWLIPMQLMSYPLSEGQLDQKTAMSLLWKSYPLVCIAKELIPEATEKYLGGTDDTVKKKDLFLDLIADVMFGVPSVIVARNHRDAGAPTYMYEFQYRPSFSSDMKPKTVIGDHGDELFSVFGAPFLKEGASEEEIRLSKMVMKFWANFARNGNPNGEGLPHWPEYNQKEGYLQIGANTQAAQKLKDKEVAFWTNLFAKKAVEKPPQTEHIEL
Description: Biochemical assays studying prodrug cleavage have been described previously ([8]). In brief, the cleavages of GS2 by CATA, CES1, CES2, and HINT1 were assessed in vitro. The reaction substrates and products were monitored over time by high-performance liquid chromatography (HPLC).

[5] = Metabolic stability in hepatic S9 fraction, hamster; format: in vitro ADME; details: 2 μM
Description: as §5, §6

[6] = Kinetic solubility; format: physicochemical; details: 37 °C, kinetic from dmso stock
Description: as §1

[7] = test system: HCV GT1b replicon; experiment: HCV GT1b replicon, stably transfected Huh-Lunet cells; format: cell-based, hepatitis C virus; details: for EC50: Hepatitis C virus, 72 h, stably transfected Huh-Lunet cells, 3 days
Description: Primary hepatocytes from humans, hamsters, dogs, and monkeys were purchased from BioreclamationIVT in 12-well plates seeded at confluence (0.88 × 10^6 cells/well). Huh-Lunet cells were obtained from ReBlikon GmbH (Mainz, Germany) ([19]). Huh-1C was derived from a GT1a replicon clone in which HCV replication was cured. All Huh-Lunet- and Huh-1C-based replicon cell lines were cultured in Dulbecco's modified Eagles' medium (DMEM) with GlutaMAX (Invitrogen, Carlsbad, CA) supplemented with 10% fetal bovine serum (FBS; HyClone, Logan, UT) and 100 U/ml penicillin (Invitrogen). Replicon cell lines containing genotype 1a (H77) and 2a (JFH1) were created as previously reported ([20][–][22]). Caco-2 cells were maintained in DMEM with sodium pyruvate, GlutaMAX supplemented with 1% penicillin-streptomycin, 1% nonessential amino acids, and 10% FBS in an incubator set at 37°C, 90% humidity, and 5% CO2.
as §2, §3, §4

[8] = fed-state simulated intestinal fluid
[9] = CES1, GS-6620-containing diastereomeric mixture was used
[10] = 0.1 N HCl, simulated gastric fluid, HCl (pH 1.0)

Row | SMILES | difference in solubility between fed and fasted simulated intestinal fluid [1] | thermodynamic solubility higher than GS-6620 [1, 8] [fold] | solubility thermodynamic [1, 8] [µM] | Fold (GS2/GS-6620) ([2]; EC50 ratio, GT1a, Huh-1C) | EC50 [2] [nM] | Metabolic stability in hepatic S9 fraction, predicted hepatic extraction [3] [%] | Amidate ester cleavage, specific activity [4, 9] [pmol/min/µg] | CES1 hydrolysis more efficient than GS-6620 ([4]; isopropyl ester cleavage) [fold] | Metabolic stability in hepatic S9 fraction, predicted hepatic extraction [5] [%] | solubility kinetic at 1 h [6, 10] [µM] | solubility kinetic at 1 h ([6]; aqueous buffer, PBS (pH 7.0)) [µM] | Fold (GS2/GS-6620) ([7]; EC50 ratio, Huh-Lunet) | EC50 [7] [nM] | 3′-Ester cleavage, specific activity [4, 9] [pmol/min/µg]
1 | CC(C)OC(=O)C(C)(C)N[P@](=O)(OC[C@H]1O[C@@](C#N)(c2ccc3c(N)ncnn23)[C@](C)(O)[C@@H]1O)Oc1ccccc1 [GS2] | less than 30% | > 30 | 430 (≈ 253 µg/mL) | 3.5 | 140 ± 60 | 91 | 91.0 | 48 | 93 | > 100 | > 100 | 7.2 | 2200 | 
2 | CC(C)OC(=O)[C@H](C)N[P@](=O)(OC[C@H]1O[C@@](C#N)(c2ccc3c(N)ncnn23)[C@](C)(O)[C@@H]1OC(=O)C(C)C)Oc1ccccc1 [GS-6620, reference compound] |  |  | 7.8 (≈ 5.03 µg/mL) |  | 41 ± 19 | 95 | 1.9 |  | 97 | 87 (≈ 56.1 µg/mL) | 46 (≈ 29.7 µg/mL) |  | 300 ± 140 | 1.6

Source: PMC6105845, “Nucleotide Prodrug Containing a Nonproteinogenic Amino Acid To Improve Oral Delivery of a Hepatitis C Virus Treatment” (Antimicrobial Agents and Chemotherapy, 2018)
